Experiments:
Assay type in all cases: cell-based
[1] = system: TE 617.T rhabdomyosarcoma cell line; experiment: Cell line sensitivity (Cell Titer Glo), TE 617.T; settings: TE 617.T cells, 72 h
Description: (§1) Cell culture: Cell lines are obtained from commercial sources including ATCC and DSMZ. All cell lines tested are cultured in RPMI or DMEM plus 10% FBS (Invitrogen) as supplier recommended. Cell lines are cultured in T-175 or 3 layer T-175 “triple” flasks using standard tissue culture techniques that are frequently carried out with a robot (CompacT—The Automation Partnership). All cell lines are thawed from frozen stock, grown at 37 C 5% CO2. Adherent lines are dislodged using TrypLE (Invitrogen), are expanded through at least 1 passage of 1:3 dilution and usually 2 to 3 passages before they are added to assay micro-titer plates. Cell count and viability are measured using Trypan dye exclusion with a ViCell counter (Beckman-Coulture). All cell lines are tested for and shown to be free of Mycoplasma using a PCR detection (http://www.radil.missouri.edu). […]
(§2) All assays are automated and are performed with an ultra-high throughput screening system built by the Genomics Institute of the Novartis Research Foundation (GNF Systems; http://www.gnfsystems.com/). […] Cell Titer Glo (Promega), which measures the amount of ATP in the well, is added and luminescence is read on a ViewLux plate reader (Perkin Elmer). […]

[2] = system: RD rhabdomyosarcoma cell line; experiment: Cell line sensitivity (Cell Titer Glo), RD; settings: RD cells, 72 h
Description: as §1, §2

[3] = system: SK-N-FI neuroblastoma cell line; experiment: Cell line sensitivity (Cell Titer Glo), SK-N-FI; settings: SK-N-FI cells, 72 h
Description: as §1, §2

[4] = system: MHH-ES-1 Ewing's Sarcoma cell line; experiment: Cell line sensitivity (Cell Titer Glo), MHH-ES-1; settings: 72 h
Description: as §1, §2

[5] = system: G-402 (Leiomyoblastoma) cell line; experiment: Cell line sensitivity (Cell Titer Glo), G-402; settings: G-402 cells, 72 h, maximum observed response; 0% = vehicle, −100% = MG132 1 μM
Description: as §1, §2

[6] = system: KP-N-SI9s neuroblastoma cell line; experiment: Cell line sensitivity (Cell Titer Glo), KP-N-SI9s; settings: 72 h
Description: as §1, §2

[7] = system: SK-ES-1 Ewing's Sarcoma cell line; experiment: Cell line sensitivity (Cell Titer Glo), SK-ES-1; settings: SK-ES-1 cells, 72 h
Description: as §1, §2

[8] = system: TE 125.T rhabdomyosarcoma cell line; experiment: Cell line sensitivity (Cell Titer Glo), TE 125.T; settings: TE 125.T cells, 72 h, maximum observed response; 0% = vehicle, −100% = MG132 1 μM
Description: as §1, §2

[9] = system: SK-N-SH neuroblastoma cell line; experiment: Cell line sensitivity (Cell Titer Glo), SK-N-SH; settings: SK-N-SH cells, 72 h
Description: as §1, §2

[10] = system: TC-71 Ewing's Sarcoma cell line; experiment: Cell line sensitivity (Cell Titer Glo), TC-71; settings: TC-71 cells, 72 h
Description: as §1, §2

[11] = system: CHP-212 neuroblastoma cell line; experiment: Cell line sensitivity (Cell Titer Glo), CHP-212; settings: CHP-212 cells, 72 h
Description: as §1, §2

[12] = system: KELLY neuroblastoma cell line; experiment: Cell line sensitivity (Cell Titer Glo), KELLY; settings: KELLY cells, 72 h, maximum observed response; 0% = vehicle, −100% = MG132 1 μM
Description: as §1, §2

[13] = system: SK-N-BE(2) neuroblastoma cell line; experiment: Cell line sensitivity (Cell Titer Glo), SK-N-BE(2); settings: SK-N-BE(2) cells, 72 h, maximum observed response; 0% = vehicle, −100% = MG132 1 μM
Description: as §1, §2

[14] = system: SK-N-DZ neuroblastoma cell line; experiment: Cell line sensitivity (Cell Titer Glo), SK-N-DZ; settings: SK-N-DZ cells, 72 h
Description: as §1, §2

[15] = system: SJRH30 rhabdomyosarcoma cell line; experiment: Cell line sensitivity (Cell Titer Glo), SJRH30; settings: SJRH30 cells, 72 h
Description: as §1, §2

[16] = system: RH-41 rhabdomyosarcoma cell line; experiment: Cell line sensitivity (Cell Titer Glo), RH-41; settings: RH-41 cells, 72 h
Description: as §1, §2

[17] = system: Hs 822.T Ewing's Sarcoma cell line; experiment: Cell line sensitivity (Cell Titer Glo), Hs 822.T; settings: Hs 822.T cells, 72 h
Description: as §1, §2

[18] = system: SIMA neuroblastoma cell line; experiment: Cell line sensitivity (Cell Titer Glo), SIMA; settings: SIMA cells, 72 h, maximum observed response; 0% = vehicle, −100% = MG132 1 μM
Description: as §1, §2

[19] = system: SK-N-AS neuroblastoma cell line; experiment: Cell line sensitivity (Cell Titer Glo), SK-N-AS; settings: SK-N-AS cells, 72 h, maximum observed response; 0% = vehicle, −100% = MG132 1 μM
Description: as §1, §2

[20] = system: IMR-32 neuroblastoma cell line; experiment: Cell line sensitivity (Cell Titer Glo), IMR-32; settings: IMR-32 cells, 72 h, maximum observed response; 0% = vehicle, −100% = MG132 1 μM
Description: as §1, §2

[21] = system: KYM-1 rhabdomyosarcoma cell line; experiment: Cell line sensitivity (Cell Titer Glo), KYM-1; settings: KYM-1 cells, 72 h, maximum observed response; 0% = vehicle, −100% = MG132 1 μM
Description: as §1, §2

[22] = system: Hs 729 rhabdomyosarcoma cell line; experiment: Cell line sensitivity (Cell Titer Glo), Hs 729; settings: Hs 729 cells, 72 h, maximum observed response; 0% = vehicle, −100% = MG132 1 μM
Description: as §1, §2

[23] = system: A-673 rhabdomyosarcoma cell line; experiment: Cell line sensitivity (Cell Titer Glo), A-673; settings: A-673 cells, 72 h
Description: as §1, §2

[24] = system: G-401 (Rhabdoid) cell line; experiment: Cell line sensitivity (Cell Titer Glo), G-401; settings: G-401 cells, 72 h, maximum observed response; 0% = vehicle, −100% = MG132 1 μM
Description: as §1, §2

[25] = Cell Titer Glo, inflection point, 0.0025 to 8 uM, read-out: COMPOUND I EC50
[26] = maximum observed response, 0% = vehicle, −100% = MG132 1 μM

## Cc1nc(NC(=O)N2CCC[C@H]2C(N)=O)sc1-c1ccnc(C(C)(C)C(F)(F)F)c1 [COMPOUND I, (S)-Pyrrolidine-1,2-dicarboxylic acid 2-amide 1-({4-methyl-5-[2-(2,2,2-trifluoro-1,1-dimethyl-ethyl)-pyridin-4-yl]-thiazol-2-yl}-amide)]
[1]; [25]
  EC50: 3800 nM
[1]; [26]
  COMPOUND I Amax (% inhibition): −55.2%
[2]; [25]
  EC50: 3300 nM
[2]; [26]
  COMPOUND I Amax (% inhibition): −43.2%
[3]; [25]
  EC50: 6100 nM
[3]; [26]
  COMPOUND I Amax (% inhibition): −55.6%
[4]; MHH-ES-1 cells (amplified PIK3CA), Cell Titer Glo, inflection point, 0.0025 to 8 uM, read-out: COMPOUND I EC50
  EC50: 2700 nM
[4]; MHH-ES-1 cells, maximum observed response, 0% = vehicle, −100% = MG132 1 μM
  COMPOUND I Amax (% inhibition): −79.2%
[5]
  COMPOUND I Amax (% inhibition): −26.4%
[6]; KP-N-SI9s cells (KRAS mutation), Cell Titer Glo, inflection point, 0.0025 to 8 uM, read-out: COMPOUND I EC50
  EC50: 600 nM
[6]; KP-N-SI9s cells, maximum observed response, 0% = vehicle, −100% = MG132 1 μM
  COMPOUND I Amax (% inhibition): −54.2%
[7]; [25]
  EC50: 500 nM
[7]; [26]
  COMPOUND I Amax (% inhibition): −51.7%
[8]
  COMPOUND I Amax (% inhibition): −49.8%
[9]; [25]
  EC50: 1600 nM
[9]; [26]
  COMPOUND I Amax (% inhibition): −44.6%
[10]; [26]
  COMPOUND I Amax (% inhibition): −5.4%
[10]; read-out: COMPOUND I EC50, Cell Titer Glo, inflection point, 0.0025 to 8 uM, heading: COMPOUND I EC50
  EC50: > 8000 nM
[11]; [25]
  EC50: 800 nM
[11]; [26]
  COMPOUND I Amax (% inhibition): −30.9%
[12]
  COMPOUND I Amax (% inhibition): −4.3%
[13]
  COMPOUND I Amax (% inhibition): −8.7%
[14]; [25]
  EC50: 5300 nM
[14]; [26]
  COMPOUND I Amax (% inhibition): −42.4%
[15]; [25]
  EC50: 2800 nM
[15]; [26]
  COMPOUND I Amax (% inhibition): −56.5%
[16]; [25]
  EC50: 1600 nM
[16]; [26]
  COMPOUND I Amax (% inhibition): −85.4%
[17]; [25]
  EC50: 1500 nM
[17]; [26]
  COMPOUND I Amax (% inhibition): −31.6%
[18]
  COMPOUND I Amax (% inhibition): −42.0%
[19]
  COMPOUND I Amax (% inhibition): −11.6%
[20]
  COMPOUND I Amax (% inhibition): −8.9%
[21]
  COMPOUND I Amax (% inhibition): −38.0%
[22]
  COMPOUND I Amax (% inhibition): −10.2%
[23]; [25]
  EC50: 5700 nM
[23]; [26]
  COMPOUND I Amax (% inhibition): −56.2%
[24]
  COMPOUND I Amax (% inhibition): −46.6%
